Source: patent publication US20030069307A1, “2-(3,4-Dihydroxyphenyl)ethyl-substituted carbonic acid derivatives and their use” (priority 2001, published 2003)

Key:
[1] = Rancimat accelerated autoxidation of lipids by air, soya bean oil; details: antioxidant power AP = IP(with test solution)/IP(control sample), soya bean oil purified on alumina type N, 0.05% test substance, higher = better
Procedure: (§1) The activity of the example compounds as antioxidants was compared with that of conventional antioxidants. The test system used was accelerated autoxidation of lipids by air with or without antioxidants, using the Rancimat apparatus (Deutsche Lebensmiftel-Rundschau 1974, vol. 70, pp. 57 to 65) (Rancimat is a registered trademark of Metrohm AG, Herisau, Switzerland).
(§2) The example compounds, vitamin C, α-tocopherol and 3,5-ditert-butyl-4-hydroxytoluene were dissolved in methanol or acetone and 100 μl of the respective test solution were added to a prepared oil sample of 3 g. Only solvent was added to a control sample. A constant dry air stream (20 I/h) was blown through the heated oil sample containing the test solution and the volatile oxidation products (principally short-chain fatty acids, such as formic acid or acetic acid) were collected in a receiver containing water. The conductivity of this aqueous solution was measured continuously and documented. The oxidation of (unsaturated) fats proceeds here only very slowly for a period, and then suddenly increases. The time until the increase is termed the induction period (IP).
(§3) From the equation below, the antioxidant power (AP) was obtained:
(§4) AP=IP(with test solution)/IP(control sample).
(§5) The higher the AP, the higher is the antioxidant activity.

[2] = Rancimat accelerated autoxidation of lipids by air, squalene; details: antioxidant power AP = IP(with test solution)/IP(control sample), squalene purified on alumina type N, stabilized with 1 ppm α-tocopherol
Procedure: as §1, §2, §3, §4, §5
The results for the experiment at 80° C. in squalene which was purified on alumina type N and stabilized with 1 ppm of α-tocopherol are shown in Table 7: […]

[3] = DPPH test for the elimination of free radicals (activity as free-radical scavenger); details: DPPH 100 μmol/l in methanol, absorption at 515 nm; smaller = better
Procedure: The activity of the exemplary compounds as free-radical scavengers was compared with conventional free-radical scavengers. For this, the DPPH (1,1-diphenyl-2-picryl-hydrazyl) test for the elimination of free-radicals was employed (Lebensm.-Wiss. u. Technol., 1995, vol. 28, pp. 25 to 30).
DPPH was dissolved in methanol to give a concentration of 100 μmol/l. A series of dilutions of the example compounds, vitamin C, α-tocopherol and 3,5-ditert-butyl-4-hydroxytoluene were prepared in methanol. Methanol served as control. 2500 μl of the DPPH solution were mixed with 500 μl of each test solution and the decrease in absorption at 515 nm was read off until the decrease was less than 2% per hour. The activity of the test substances as free-radical scavengers was calculated from the following equation:
Activity as free-radical scavenger (%)=100−(absorption of the test compounds)/absorption of the control)×100.
From activity as free-radical scavenger (%) in a number of dilutions of test compounds, for each test compound the effective relative concentration EC50 (based on the initial concentration of DPPH, EC=c (test compound)/c(DPPH)) of a test compound was calculated at which the free-radical DPPH was eliminated by 50%. The smaller the EC50 values, the better is the free-radical scavenging action.

EC50 (effective relative concentration, c(test compound)/c(DPPH), at which the free-radical DPPH was eliminated by 50%) [3]	Compound	AP in soya bean oil at 100° C. containing 0.05% of test substance [1]	AP in squalene at 80° C. containing 0.005% test substance [2]
0.24 mol/mol	CCCCCCOC(=O)NCCc1ccc(O)c(O)c1 [Example 3, N-[2-(3,4-Dihydroxyphenyl)ethyl]-O-hexylurethane]	9.8	46
0.25 mol/mol	CCCCC(CC)COC(=O)NCCc1ccc(O)c(O)c1 (centres unmarked) [Example 4, N-[2-(3,4-Dihydroxyphenyl)ethyl]-O-(2-ethylhexyl)urethane]	7.6	50
0.27 mol/mol	O=C1O[C@H]([C@@H](O)CO)C(O)=C1O [Vitamin C, reference compound]	1.2	0.7
0.35 mol/mol	CC(C)[C@@H]1CC[C@@H](C)C[C@H]1OC(=O)NCCc1ccc(O)c(O)c1 [Example 2, N-[2-(3,4-Dihydroxyphenyl)ethyl]-O-[(1R,3R,4S)-menthyl]urethane]	7.1	25
0.24 mol/mol	Cc1cc(C(C)(C)C)c(O)c(C(C)(C)C)c1 [3,5-Ditert-butyl-4-hydroxytoluene, reference compound]	4.8	38
0.25 mol/mol	Cc1c(C)c2c(c(C)c1O)CC[C@@](C)(CCC[C@H](C)CCC[C@H](C)CCCC(C)C)O2 [α-Tocopherol, reference compound]	5.1	39
0.20 mol/mol	CCCCCCNC(=O)NCCc1ccc(O)c(O)c1 [Example 6, N-[2-(3,4-Dihydroxyphenyl)ethyl]-N′-hexylurea]	26	60
–	CCCCCCNC(=S)NCCc1ccc(O)c(O)c1 [Example 5, N-[2-(3,4-Dihydroxyphenyl)ethyl]-N′-hexylthiourea]	14.4	59

Compound	EC50 (effective relative concentration, c(test compound)/c(DPPH), at which the free-radical DPPH was eliminated by 50%) [3]	AP in soya bean oil at 100° C. containing 0.05% of test substance [1]	AP in squalene at 80° C. containing 0.005% test substance [2]
COC(=O)NCCc1ccc(O)c(O)c1 [Example 1, N-[2-(3,4-Dihydroxyphenyl)ethyl]-O-methylurethane]	0.27 mol/mol	15.3	76
